Experiment [1] has as its target T1, ferroportin (Homo sapiens, UniProt Q9NP59).
T1 sequence (Q9NP59 1-571): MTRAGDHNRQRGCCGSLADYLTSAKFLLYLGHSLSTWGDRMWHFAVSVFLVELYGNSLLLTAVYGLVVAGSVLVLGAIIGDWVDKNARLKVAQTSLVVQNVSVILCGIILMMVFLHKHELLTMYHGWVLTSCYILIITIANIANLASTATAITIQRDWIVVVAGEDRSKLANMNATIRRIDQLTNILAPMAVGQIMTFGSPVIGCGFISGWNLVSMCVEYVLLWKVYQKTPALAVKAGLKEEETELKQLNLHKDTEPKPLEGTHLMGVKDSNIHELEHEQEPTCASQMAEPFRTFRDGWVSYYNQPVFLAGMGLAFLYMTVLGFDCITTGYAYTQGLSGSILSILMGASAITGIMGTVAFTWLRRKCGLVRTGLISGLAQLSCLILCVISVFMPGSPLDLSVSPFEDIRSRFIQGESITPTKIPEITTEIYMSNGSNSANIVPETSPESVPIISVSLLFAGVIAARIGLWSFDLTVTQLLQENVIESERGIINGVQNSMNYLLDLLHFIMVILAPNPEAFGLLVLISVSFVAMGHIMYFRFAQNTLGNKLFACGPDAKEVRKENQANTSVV
Briefly: T47D cell-based ferroportin internalization assay in presence of 0.5% mouse serum albumin (MSA). The conditions noted are these: T47D cells. The method, then:
The potency of the peptides in causing ferroportin internalization was evaluated in a T47D cell-based assay. […] In this internalization assay, the potency of the test peptides was evaluated in presence of serum albumin which is the main protein component in the blood. T47D cells were maintained in RPMI media (containing required amount of fetal bovine serum) and regularly sub-cultured. In preparation for the assay, the cells were seeded in 96-well plates at a density of 80-100 k cells per well in 100 ul volume and allowed to rest overnight. On the next day, test peptides were first prepared in dilution series (10-point series, starting concentration of ˜5 μM, typically 3-4×fold dilution steps), all with 0.5% mouse serum albumin (MSA purified from mouse serum; Sigma, A3139). The test peptide dilution series were allowed to incubate at room temperature for 30 min. Then the media was aspirated from the 96-well cell plate and test peptide dilution series were added. After 1 hr incubation, the media with test peptides was aspirated out and AF647-conjugated detection peptide was added at fixed concentration of 200 nM. The AF647-conjugated detection peptide was previously verified to bind to ferroportin and cause its internalization. The cells were washed again after a 2 hr incubation in preparation for flow cytometry analysis. The Median Fluorescence Intensity (MFI) of the AF647-positive population was measured (after removing dead cells and non-singlets from the analysis). The MFI values were used to generate a dose-response curve and obtain IC50 potencies for the test peptides. The IC50 potencies were calculated by using 4-parameter non-linear fitting function in Graphpad Prism (Table 6A).

Experiment [2] concerns the target T2, human ferroportin (SLC40A1) (Homo sapiens, UniProt Q9NP59).
T2 sequence (Q9NP59 1-571): T1 sequence (Q9NP59 1-571)
Briefly: FPN activity assay: internalization/degradation of ferroportin-GFP in stably transfected HEK293 cells (decrease in GFP fluorescence). In kind it is cell-based. The conditions noted are these: compound incubated at least 18 hours. The procedure: Peptide analogues were tested in vitro for induction of internalization of the human ferroportin protein. Following internalization, the ferroporin protein is degraded. The assay used (FPN activity assay) measures a decrease in fluorescence of the receptor. The cDNA encoding the human ferroportin (SLC40A1) was cloned from a cDNA clone from Origene (NM_014585). The DNA encoding the ferroportin was amplified by PCR using primers also encoding terminal restriction sites for subcloning, but without the termination codon. The ferroportin receptor was subcloned into a mammalian GFP expression vector containing a neomycin (G418) resistance marker in such that the reading frame of the ferroportin was fused in frame with the GFP protein. The fidelity of the DNA encoding the protein was confirmed by DNA sequencing. HEK293 cells were used for transfection of the ferroportin-GFP receptor expression plasmid. The cells were grown according to standard protocol in growth medium and transfected with the plasmids using Lipofectamine (manufacturer's protocol, Invitrogen). The cells stably expressing ferroportin-GFP were selected using G418 in the growth medium (in that only cells that have taken up and incorporated the cDNA expression plasmid survive) and sorted several times on a Cytomation MoFloTM cell sorter to obtain the GFP-positive cells (488 nm/530 nm). The cells were propagated and frozen in aliquots. […] Compound was added to desired final concentration for at least 18 hours in the incubator. […] Compound was added to desired final concentration for at least 18 hours but no more than 24 hours in the incubator. […] The “RI” in RI-Mini-Hepcidin refers to Retro Inverse. A retro inverse peptide is a peptide with a reversed sequence in all D amino acids. An example is that […] becomes […]. The EC50 of these reference compounds for ferroportin internalization/degradation was determined according to the FPN activity assay described above. These peptides served as control standards.

Drawing on patent US20240209053A1 (Protagonist Therapeutics, Inc., priority 2021, published 2024), this text covers IC50 for 13 compounds.

Numbered stars: 1 amine (or outer) side, 2 acyl side, 3 side chain; on linkers, the order of the positions; unused ones are H or OH. Bridge positions count the residues as written; N and C are the ends. Square brackets hold non-standard residues; d marks the D form. Side chains are listed from the residue outwards. Peptide text beside a SMILES is read from it. * marks the point of attachment. Dip = N[C@H](C(=O)O)C(c1ccccc1)c1ccccc1; Hag = O=C([C@H](CCC=[*:3])N[*:1])[*:2]; Palmitoyl = CCCCCCCCCCCCCCCC(=O)*; tBuAla = CC(C)(C)C[C@H](N)C(=O)O; β3hF = N[C@H](CC(=O)O)Cc1ccccc1; Isovaleryl = CC(C)CC(=O)*; Ahx = NCCCCCC(=O)O

For `CC[C@H](C)[C@@H]1NC(=O)[C@H](C)NC(=O)[C@@H]2CCCN2C(=O)[C@H](C(c2ccccc2)c2ccccc2)NC(=O)[C@H](Cc2c[nH]cn2)NC(=O)[C@H]([C@@H](C)O)NC(=O)[C@@H](NC(=O)CC(C)C)CCC=CCC[C@@H](C(=O)N[C@H](CC(=O)N[C@@H](C)C(=O)N[C@H](CCCCN)C(N)=O)Cc2ccccc2)NC1=O` [Compd 47] (Isovaleryl-[Hag]TH[Dip]PAI[Hag][β3hF]A[dK]-NH2; staple 1-8), the 50% inhibitory concentration (IC50) in experiment [1] and in experiment [2] was 10 to 100 nM in each case.

`CCCCCCCCCCCCCCCC(=O)NCCCCCC(=O)NCCCC[C@H](NC(=O)C[C@H](Cc1ccccc1)NC(=O)[C@@H]1CCC=CCC[C@H](NC(=O)CC(C)C)C(=O)N[C@@H]([C@@H](C)O)C(=O)N[C@@H](Cc2c[nH]cn2)C(=O)N[C@@H](C(c2ccccc2)c2ccccc2)C(=O)N2CCC[C@H]2C(=O)N[C@@H](C)C(=O)N[C@@H]([C@@H](C)CC)C(=O)N1)C(N)=O` [Compd 17]: the IC50 (as a rule, the concentration that inhibits the measured activity by half) in experiment [1] lay within 1 to 10 nM; in experiment [2], 10 to 100 nM.

With `CCCCCCCCCCCCCCCC(=O)NCCCCCC(=O)NCCCC[C@H](NC(=O)C[C@H](Cc1ccccc1)NC(=O)[C@@H](CCCCN)NC(=O)[C@@H]1CCC=CCC[C@H](NC(=O)[C@@H]2CCCN2C(=O)[C@@H](NC(=O)[C@H](Cc2c[nH]cn2)NC(=O)[C@@H](NC(=O)[C@H](CCC(=O)O)NC(=O)CC(C)C)[C@@H](C)O)C(c2ccccc2)c2ccccc2)C(=O)N1)C(=O)N[C@H](CCCCN)C(N)=O` [Compd 15], the half-maximal inhibitory concentration (IC50) in experiment [1] lay in the range of 1 to 10 nM; in experiment [2], 10 to 100 nM.

Regarding `CCCCCCCCCCCCCCCC(=O)NCCCCCC(=O)NCCCC[C@H](NC(=O)C[C@H](Cc1ccccc1)NC(=O)[C@@H]1CC=CCC[C@H](NC(=O)CC(C)C)C(=O)N[C@@H]([C@@H](C)O)C(=O)N[C@@H](Cc2c[nH]cn2)C(=O)N[C@@H](C(c2ccccc2)c2ccccc2)C(=O)N2CCC[C@H]2C(=O)N[C@@H](C)C(=O)N[C@@H]([C@@H](C)CC)C(=O)N1)C(=O)N[C@H](CCCCN)C(N)=O` [Compd 26], the IC50 in experiment [1] and in experiment [2] was 10 to 100 nM throughout.

Regarding `CCCCCCCCCCCCCCCC(=O)NCCCCCC(=O)NCCCC[C@H](NC(=O)C[C@H](Cc1ccccc1)NC(=O)[C@@H]1CCC=CCC[C@H](NC(=O)CC(C)C)C(=O)N[C@@H]([C@@H](C)O)C(=O)N[C@@H](Cc2c[nH]cn2)C(=O)N[C@@H](C(c2ccccc2)c2ccccc2)C(=O)N2CCC[C@H]2C(=O)N[C@@H](C)C(=O)N[C@@H]([C@@H](C)CC)C(=O)N1)C(=O)N[C@@H](CC(C)(C)C)C(N)=O` [Compd 65], the values for the IC50 in experiment [1] and in experiment [2] were 1 to 10 nM and 10 to 100 nM, respectively.

On to `CCCCCCCCCCCCCCCC(=O)NCCCCCC(=O)NCCCC[C@H](NC(=O)C[C@H](Cc1ccccc1)NC(=O)[C@@H]1CCC=CCC[C@H](NC(=O)[C@@H]2CCCN2C(=O)[C@@H](NC(=O)[C@H](Cc2c[nH]cn2)NC(=O)[C@@H](NC(=O)[C@H](CCC(=O)O)NC(=O)CC(C)C)[C@@H](C)O)C(c2ccccc2)c2ccccc2)C(=O)N[C@@H]([C@@H](C)CC)C(=O)N1)C(=O)N[C@H](CCCCN)C(N)=O` [Compd 6] (Isovaleryl-ETH[Dip]P[Hag]I[Hag][β3hF]K([Ahx-Palmitoyl])[dK]-NH2; staple 6-8), for which the IC50 in experiment [1] lay in the range of 1 to 10 nM; in experiment [2], 10 to 100 nM.

Consider `CCCCCCCCCCCCCCCC(=O)NCCCCCC(=O)NCCCC[C@H](NC(=O)C[C@H](Cc1ccccc1)NC(=O)[C@@H]1CCC=CCC[C@H](NC(=O)CC(C)C)C(=O)N[C@@H](C)C(=O)N[C@@H](Cc2c[nH]cn2)C(=O)N[C@@H](C(c2ccccc2)c2ccccc2)C(=O)N2CCC[C@H]2C(=O)N[C@@H](C)C(=O)N[C@@H]([C@@H](C)CC)C(=O)N1)C(=O)N[C@H](CCCCN)C(N)=O` [Compd 41] (Isovaleryl-[Hag]AH[Dip]PAI[Hag][β3hF]K([Ahx-Palmitoyl])[dK]-NH2; staple 1-8), for which the IC50 in experiment [1] and in experiment [2] was 100 to 500 nM in each case.

Consider `CCCCCCCCCCCCCCCC(=O)NCCCCCC(=O)NCCCC[C@H](NC(=O)C[C@H](Cc1ccccc1)NC(=O)[C@@H]1CCCC=CCCC[C@H](NC(=O)CC(C)C)C(=O)N[C@@H]([C@@H](C)O)C(=O)N[C@@H](Cc2c[nH]cn2)C(=O)N[C@@H](C(c2ccccc2)c2ccccc2)C(=O)N2CCC[C@H]2C(=O)N[C@@H](C)C(=O)N[C@@H]([C@@H](C)CC)C(=O)N1)C(=O)N[C@H](CCCCN)C(N)=O` [Compd 28], for which the IC50 in experiment [1] and in experiment [2] was 1 to 10 nM each time.

For the compound `CCCCCCCCCCCCCCCC(=O)NCCCCCC(=O)NCCCC[C@H](NC(=O)C[C@H](Cc1ccccc1)NC(=O)[C@@H]1CCC=CCC[C@H](NC(=O)CC(C)C)C(=O)N[C@@H]([C@@H](C)O)C(=O)N[C@@H](Cc2c[nH]cn2)C(=O)N[C@@H](C(c2ccccc2)c2ccccc2)C(=O)N2CCC[C@H]2C(=O)N[C@@H](CC(C)(C)C)C(=O)N[C@@H]([C@@H](C)CC)C(=O)N1)C(=O)N[C@H](CCCCN)C(N)=O` [Compd 62] (Isovaleryl-[Hag]TH[Dip]P[tBuAla]I[Hag][β3hF]K([Ahx-Palmitoyl])[dK]-NH2; staple 1-8), the IC50 lay in the range of 1 to 10 nM in experiment [1] and 10 to 100 nM in experiment [2].

For the compound `CCCCCCCCCCCCCCCC(=O)NCCCCCC(=O)NCCCC[C@H](NC(=O)C[C@H](Cc1ccccc1)NC(=O)[C@@H]1CCC=CCC[C@H](NC(=O)CC(C)C)C(=O)N(C)[C@@H]([C@@H](C)O)C(=O)N[C@@H](Cc2c[nH]cn2)C(=O)N[C@@H](C(c2ccccc2)c2ccccc2)C(=O)N2CCC[C@H]2C(=O)N[C@@H](C)C(=O)N[C@@H]([C@@H](C)CC)C(=O)N1)C(=O)N[C@H](CCCCN)C(N)=O` [Compd 49], the IC50 lay within 100 to 500 nM in experiment [1] and 10 to 100 nM in experiment [2].

Regarding `CCCCCCCCCCCCCCCC(=O)NCCCCCC(=O)NCCCC[C@H](NC(=O)C[C@H](Cc1ccccc1)NC(=O)[C@H]1CCCC=CCCC[C@H](NC(=O)CC(C)C)C(=O)N[C@@H]([C@@H](C)O)C(=O)N[C@@H](Cc2c[nH]cn2)C(=O)N[C@@H](C(c2ccccc2)c2ccccc2)C(=O)N2CCC[C@H]2C(=O)N[C@@H](C)C(=O)N[C@@H]([C@@H](C)CC)C(=O)N1)C(=O)N[C@H](CCCCN)C(N)=O` [Compd 77], the IC50 in experiment [1] and in experiment [2] was 1 to 10 nM in each case.

Regarding `CCCCCCCCCCCCCCCC(=O)NCCCCCC(=O)NCCCC[C@H](NC(=O)C[C@H](Cc1ccccc1)NC(=O)[C@H]1CCC=CCCC[C@H](NC(=O)CC(C)C)C(=O)N[C@@H]([C@@H](C)O)C(=O)N[C@@H](Cc2c[nH]cn2)C(=O)N[C@@H](C(c2ccccc2)c2ccccc2)C(=O)N2CCC[C@H]2C(=O)N[C@@H](C)C(=O)N[C@@H]([C@@H](C)CC)C(=O)N1)C(=O)N[C@H](CCCCN)C(N)=O` [Compd 78], the IC50 in experiment [1] is 100 to 500 nM; in experiment [2] it was 10 to 100 nM.

For the compound `CCCCCCCCCCCCCCCC(=O)NCCCCCC(=O)NCCCC[C@H](NC(=O)C[C@H](Cc1ccccc1)NC(=O)[C@@H]1CCC=CCCC[C@H](NC(=O)CC(C)C)C(=O)N[C@@H]([C@@H](C)O)C(=O)N[C@@H](Cc2c[nH]cn2)C(=O)N[C@@H](C(c2ccccc2)c2ccccc2)C(=O)N2CCC[C@H]2C(=O)N[C@@H](C)C(=O)N[C@@H]([C@@H](C)CC)C(=O)N1)C(=O)N[C@H](CCCCN)C(N)=O` [Compd 29], the IC50 in experiment [1] and in experiment [2] was 1 to 10 nM throughout.
